The results in this text go back to patent US9351965B2, “Indazole derivatives useful as ERK inhibitors” (Merck Sharp & Dohme Corp., priority 2010, dated 2016).

As a reminder, the IC50 is the midpoint of a concentration-inhibition curve. A higher IC50 goes with a need for much substance.

The target in the test is fully phosphorylated, active Mouse ERK2 protein (Mus musculus (Mouse), UniProt P63085). The experiment in a line: Active ERK2 (aERK) IMAP assay. The note with it: IMAP fluorescence polarization; 30 μM ATP; 30 minute pre-incubation. The test is classed as biochemical. The protocol: 14 μl of kinase buffer (10 mM Tris.HCl pH 7.2, 10 mM MgCl2, 0.01% Tween-20, 1 mM DTT) containing 0.4 ng unphosphorylated Mouse ERK2 protein was added to each well of a black 384-well assay plate. […] DMSO concentration during initial incubation is 6.7%. […] DMSO concentration during ERK activation was 4%. After one hour, reactions were terminated by addition of 60 μl IMAP detections beads in binding buffer (Molecular Devices). Binding was allowed to equilibrate for 30 minutes before reading the plate on an LJL Analyst Fluorescence Polarization plate reader.
Sequence of fully phosphorylated, active Mouse ERK2 protein (P63085 whole entry): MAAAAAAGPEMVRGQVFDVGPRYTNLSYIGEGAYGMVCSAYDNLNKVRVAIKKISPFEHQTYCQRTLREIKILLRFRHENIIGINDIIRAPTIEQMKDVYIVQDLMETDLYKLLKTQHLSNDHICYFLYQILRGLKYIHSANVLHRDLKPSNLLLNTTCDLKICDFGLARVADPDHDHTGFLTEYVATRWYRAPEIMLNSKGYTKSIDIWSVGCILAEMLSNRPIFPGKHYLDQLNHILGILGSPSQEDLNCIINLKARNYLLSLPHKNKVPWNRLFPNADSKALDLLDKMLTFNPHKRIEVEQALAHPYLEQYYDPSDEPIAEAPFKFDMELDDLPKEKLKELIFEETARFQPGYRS
Active ERK2 (aERK) Assay:
Activated ERK2 activity was also determined in the IMAP assay format using the procedure outlined above. […] Reactions proceeded for 30 minutes before termination by addition of 60 μl IMAP detection beads in binding buffer. Plates were read as above after 30 minute binding equilibration.
A general note: Polarisation of emitted light reports the rotation of a fluorescent probe.
For the compound `O=C(NC1CCCC(O)(Cc2ccccc2F)C1)c1ccc2[nH]nc(-c3ccc4ncsc4c3)c2c1` (single isomer, unassigned) [compound 10, 3-(6-benzothiazolyl)-N-[3-[(2-fluorophenyl)methyl]-3-hydroxycyclohexyl]-1H-indazole-5-carboxamide], inhibition was half-maximal at 1000 nM (IC50).

`Cc1cc(-c2n[nH]c3ccc(C(=O)N[C@@H]4CCC[C@@](O)(Cn5cc6ccccc6n5)C4)cc23)ccn1` (relative stereo) [compound 94, N-[cis-3-hydroxy-3-(2H-indazol-2-ylmethyl)cyclohexyl]-3-(2-methyl-4-pyridinyl)-1H-indazole-5-carboxamide] returned a half-inhibitory concentration (IC50) of 35 nM.

Turning to `Cc1cc(-c2n[nH]c3ccc(C(=O)NC4CCCC(CO)(Oc5cccc(F)c5)C4)cc23)ccn1` (single isomer, unassigned) [compound 44, N-[3-(3-fluorophenoxy)-3-(hydroxymethyl)cyclohexyl]-3-(2-methyl-4-pyridinyl)-1H-indazole-5-carboxamide], half-maximal inhibition (IC50) required 214 nM.

Turning to `Cc1cc(-c2n[nH]c3ccc(C(=O)N[C@H]4CCC[C@](O)(Cn5ncc6c(F)cccc65)C4)cc23)ccn1` (relative stereo) [compound 103, N-[cis-3-[(4-fluoro-1H-indazol-1-yl)methyl]-3-hydroxycyclohexyl]-3-(2-methyl-4-pyridinyl)-1H-indazole-5-carboxamide], the IC50 stood at 21.3 nM. This IC50 lies about 10-fold lower than the previous one.

In turn, `Cc1nc2ccc(-c3n[nH]c4ccc(C(=O)NC5CCCC(Cn6cc(C#N)c7ccccc76)C5)cc34)cc2s1` (stereo not shown) [compound 112, N-[3-[(3-cyano-1H-indol-1-yl)methyl]cyclohexyl]-3-(2-methyl-6-benzothiazolyl)-1H-indazole-5-carboxamide] showed an IC50 of 1000 nM. Compared with the last compound, the IC50 is about 47-fold higher.

For `Cc1cc(-c2n[nH]c3ccc(C(=O)N[C@@H]4CCC[C@](O)(Cn5ncccc5=O)C4)cc23)ccn1` (relative stereo) [compound 83, N-[trans-3-hydroxy-3-[(6-oxo-1(6h)-pyridazinyl)methyl]cyclohex-yl]-3-(2-methyl-4-pyridinyl)-1H-indazole-5-carboxamide], it took 1000 nM to reach half-maximal inhibition (IC50). That is a single-digit micromolar value.

In turn, `Cc1cc(-c2n[nH]c3ccc(C(=O)N[C@@H]4CCC[C@](O)(CN5C(=O)Cc6ccccc65)C4)cc23)ccn1` (relative stereo) [compound 88, N-[trans-3-[(2,3-dihydro-2-oxo-1H-indol-1-yl)methyl]-3-hydroxycyclohexyl]-3-(2-methyl-4-pyridinyl)-1H-indazole-5-carboxamide] registered an IC50 of 497 nM.

In turn, `O=C(N[C@@H]1CCC[C@@](O)(Cn2ncc3ncccc32)C1)c1ccc2[nH]nc(-c3ccc4nccn4c3)c2c1` [compound 86, N-[cis-3-hydroxy-3-(1H-pyrazolo[4,3-b]pyridN-1-ylmethyl)cyclohexyl]-3-imidazo[1,2-a]pyridiN-6-yl-1H-indazole-5-carboxamide] showed a 50% inhibitory concentration (IC50) of 1000 nM. Against the preceding compound, the IC50 is about 2-fold higher.

`Cc1cc(-c2n[nH]c3ccc(C(=O)N[C@@H]4CCC[C@](O)(Cn5cnc6cccnc65)C4)cc23)ccn1` (relative stereo) [compound 72, N-[trans-3-hydroxy-3-(3H-imidazo[4,5-b]pyridin-3-ylmethyl)cyclohexyl]-3-(2-methyl-4-pyridinyl)-1H-indazole-5-carboxamide] registered a half-inhibitory concentration (IC50) of 537 nM.

`Cc1cc(-c2n[nH]c3ccc(C(=O)NC4CCCC(O)(C(=O)c5ccccc5)C4)cc23)ccn1` (stereo not shown) [compound 47, N-(3-benzoyl-3-hydroxycyclohexyl)-3-(2-methyl-4-pyridinyl)-1H-indazole-5-carboxamide] registered an IC50 of 577 nM.

In turn, `Cc1cc(-c2n[nH]c3ccc(C(=O)N[C@@H]4CCC[C@@](O)(Cn5ncc6cccnc65)C4)cc23)ccn1` (relative stereo) [compound 79, N-[cis-3-hydroxy-3-(1H-pyrazolo[3,4-b]pyridin-1-ylmethyl)cyclohexyl]-3-(2-methyl-4-pyridinyl)-1H-indazole-5-carboxamide] returned an IC50 of 8.6 nM.

Take `COC1(Cc2ccccc2F)CCCC(NC(=O)c2ccc3[nH]nc(-c4ccnc(C)c4)c3c2)C1` (stereo not shown) [compound 39, N-[3-[(2-fluorophenyl)methyl]-3-methoxycyclohexyl]-3-(2-methyl-4-pyridinyl)-1H-indazole-5-carboxamide]: the IC50 stood at 28.5 nM.

`Cc1cc(-c2n[nH]c3ccc(C(=O)N[C@H]4CCC[C@@](O)(Cn5c(C)nc6ccccc65)C4)cc23)ccn1` [compound 69, N-[trans-3-hydroxy-3-[(2-methyl-1H-benzimidazol-1-yl)methyl]cyclohexyl]-3-(2-methyl-4-pyridinyl)-H-indazole-5-carboxamide] showed an IC50 of 53 nM. Against the preceding compound, the IC50 is about 1.9-fold higher.

The compound `O=C(NC1CCCC(Cn2cccn2)C1)c1ccc2[nH]nc(-c3ccc4nccn4c3)c2c1` (stereo not shown) [compound 110, 3-imidazo[1,2-a]pyridin-6-yl-N-[3-(1H-pyrazol-1-ylmethyl)cyclohexyl]-1H-indazole-5-carboxamide] registered a concentration for half-maximal inhibition (IC50) of 74.6 nM.

As to `Cc1cc(-c2n[nH]c3ccc(C(=O)NC4CCCC(Cn5cnc6ncccc65)C4)cc23)ccn1` (stereo not shown) [compound 117, N-[3-(1H-imidazo[4,5-b]pyridin-1-ylmethyl)cyclohexyl]-3-(2-methyl-4-pyridinyl)-1H-indazole-5-carboxamide], the half-maximal inhibitory concentration (IC50) was found to be 86.5 nM.

With `Cc1cc(-c2n[nH]c3ccc(C(=O)NC4CCCC(CO)(Cc5ccc(F)cc5)C4)cc23)ccn1` (stereo not shown) [compound 135, N-[3-[(4-fluorophenyl)methyl]-3-(hydroxymethyl)cyclohexyl]-3-(2-methyl-4-pyridinyl)-1H-indazole-5-carboxamide], it took 357 nM to reach half-maximal inhibition (IC50).

`Cc1cc(-c2n[nH]c3ccc(C(=O)NC4CCCC(Cn5ncc6ccccc65)C4)cc23)ccn1` (stereo not shown) [compound 123, N-[3-(1H-indazol-1-ylmethyl)cyclohexyl]-3-(2-methyl-4-pyridinyl)-1H-indazole-5-carboxamide] returned a half-inhibitory concentration (IC50) of 10.7 nM.

`Cc1cc(-c2n[nH]c3ccc(C(=O)NC4CCCC(O)(C(O)c5ccccc5)C4)cc23)ccn1` (stereo not shown) [compound 52, N-[3-hydroxy-3-(hydroxyphenylmethyl)cyclohex-yl]-3-(2-methyl-4-pyridinyl)-1H-indazole-5-carboxamide (diasterimer 4)] showed a 50% inhibitory concentration (IC50) of 294 nM.

As for `Cc1cc(-c2n[nH]c3ccc(C(=O)N[C@@H]4CCC[C@@](O)(Cn5ncccc5=O)C4)cc23)ccn1` (relative stereo) [compound 84, N-[cis-3-hydroxy-3-[(6-oxo-1(6h)-pyridazinyl)methyl]cyclohex-yl]-3-(2-methyl-4-pyridinyl)-1H-indazole-5-carboxamide], it took 1000 nM to reach half-maximal inhibition (IC50).

Consider `Cc1cc(-c2n[nH]c3ccc(C(=O)NC4CCCC(Cn5ncc6ccc(C(F)(F)F)cc65)C4)cc23)ccn1` (mixture of isomers) [compound 125, 3-(2-methyl-4-pyridinyl)-N-[cis/trans-3-[[6-(trifluoromethyl)-1H-indazol-1-yl]methyl]cyclohexyl]-1H-indazole-5-carboxamide], for which 1000 nM corresponded to half-maximal inhibition (IC50). In other words, the single-digit micromolar range.

`Cc1cc(-c2n[nH]c3ccc(C(=O)NN4CCC(CO)(Cc5ccccc5F)C4)cc23)ccn1` (stereo not shown) [compound 150, N-[3-[(2-fluorophenyl)methyl]-3-(hydroxymethyl)-1-pyrrolidinyl]-3-(2-methyl-4-pyridinyl)-1H-indazole-5-carboxamide] came in with an IC50 of 32.2 nM.

Compound `Cc1cc(-c2n[nH]c3ccc(C(=O)N[C@@H]4CCC[C@](O)(Cn5ncc6ccncc65)C4)cc23)ccn1` (relative stereo) [compound 74, N-[trans-3-hydroxy-3-(1H-pyrazolo[3,4-c]pyridin-1-ylmethyl)cyclohexyl]-3-(2-methyl-4-pyridinyl)-1H-indazole-5-carboxamide] registered a 50% inhibitory concentration (IC50) of 792 nM.

For `Cc1cc(-c2n[nH]c3ccc(C(=O)NC4CCC(CO)(Cc5ccccc5F)C4)cc23)ccn1` (stereo not shown) [compound 139, N-[3-[(2-fluorophenyl)methyl]-3-(hydroxymethyl)cyclopentyl]-3-(2-methyl-4-pyridinyl)-1H-indazole-5-carboxamide], half-maximal inhibition (IC50) was put at 64.4 nM.

`COC1(Cc2ccccc2F)CCCC(NC(=O)c2ccc3[nH]nc(-c4ccnc(C)c4)c3c2)C1` (stereo not shown) [compound 40, N-[3-[(2-fluorophenyl)methyl]-3-methoxycyclohexyl]-3-(2-methyl-4-pyridinyl)-1H-indazole-5-carboxamide] showed a 50% inhibitory concentration (IC50) of 205 nM. This IC50 is about 3.2-fold higher than that of the compound before.

As to `Cc1cc(-c2n[nH]c3ccc(C(=O)NC4CCCC(O)(C(=O)c5ccccc5)C4)cc23)ccn1` (stereo not shown) [compound 53, N-(3-benzoyl-3-hydroxycyclohexyl)-3-(2-methyl-4-pyridinyl)-1H-indazole-5-carboxamide], half-maximal inhibition (IC50) was put at 258 nM.

As to `Cc1cc(-c2n[nH]c3ccc(C(=O)NN4CCCC(Oc5ccccc5Cl)C4)cc23)ccn1` (stereo not shown) [compound 140, N-[3-(2-chlorophenoxy)-1-piperidinyl]-3-(2-methyl-4-pyridinyl)-1H-indazole-5-carboxamide], half-maximal inhibition (IC50) required 31.3 nM.

With `Cc1nc2ccc(-c3n[nH]c4ccc(C(=O)NC5CCCC(Cn6c(C)nc7ccccc76)C5)cc34)cc2s1` (stereo not shown) [compound 127, N-[3-[(2-methyl-1H-benzimidazol-1-yl)methyl]cyclohexyl]-3-(2-methyl-6-benzothiazolyl)-1H-indazole-5-carboxamide], the IC50 was 1000 nM. This IC50 is about 32-fold higher than that of the compound before.

`Cc1cc(-c2n[nH]c3ccc(C(=O)N[C@H]4CCC[C@@](O)(Cn5cc6cccc(F)c6n5)C4)cc23)ccn1` (relative stereo) [compound 102, N-[trans-3-[(7-fluoro-2H-indazol-2-yl)methyl]-3-hydroxycyclohexyl]-3-(2-methyl-4-pyridinyl)-1H-indazole-5-carboxamide]: 704 nM corresponded to half-maximal inhibition (IC50).
